Measured values as given in patent US20230108906A1, “SUBSTITUTED BICYCLIC AND TRICYCLIC UREAS AND AMIDES, ANALOGUES THEREOF, AND METHODS USING SAME” (Arbutus Biopharma Corporation, priority 2019, published 2023).

System: HBV rcDNA in HepDE19 cells
Assay: HepDE19 assay with bDNA quantitation of HBV rcDNA
Type: cell-based, hepatitis B virus (HBV)
Settings: Hepatitis B virus, HepDE19, 168 h, inhibition of rcDNA formation in HepDE19 cells (HepG2 derived), Tet-free medium, 7 day incubation, Quantigene 2.0 bDNA readout, top concentration 25 μM; read-out: DE-19bDNA EC50
Method in brief: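 HepDE19 cells (HepG2-derived, Tet-regulated HBV) switched to Tet-free medium, then treated 7 days at 37 °C with compound, 8-point titration from 25 μM, 0.5% DMSO. rcDNA quantified by bDNA with HBV probes; EC50/EC90 via 4-parameter fit. Viability (CC50) by CellTiter-Glo ATP on 5,000 cells/well after 4 days.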

| SMILES | EC50 |
| --- | --- |
| Cc1cc(NC(=O)N(C)C2COCc3[nH]c(=O)c4ccc(F)cc4c32)ccc1F (centres unmarked) [Compound 75, 3-(4-Fluoro-3-methylphenyl)-1-(9-fluoro-6-oxo-1,4,5,6-tetrahydro-2H-pyrano[3,4-c]isoquinolin-1-yl)-1-methylurea] | 0.02 µM |
| CCN(C(=O)Nc1ccc(F)c(C)c1)C1COCc2[nH]c(=O)c3ccc(F)cc3c21 (centres unmarked) [Compound 76, 1-Ethyl-3-(4-fluoro-3-methylphenyl)-1-(9-fluoro-6-oxo-1,4,5,6-tetrahydro-2H-pyrano[3,4-c]isoquinolin-1-yl)urea] | 0.01 µM |
| CN(C(=O)Nc1ccc(F)c(C#N)c1)C1COCc2[nH]c(=O)c3ccc(F)cc3c21 (centres unmarked) [Compound 77, 3-(3-Cyano-4-fluorophenyl)-1-(9-fluoro-6-oxo-1,4,5,6-tetrahydro-2H-pyrano[3,4-c]isoquinolin-1-yl)-1-methylurea] | 0.05 µM |
| CCN(C(=O)Nc1ccc(F)c(C#N)c1)C1COCc2[nH]c(=O)c3ccc(F)cc3c21 (centres unmarked) [Compound 78, 3-(3-Cyano-4-fluorophenyl)-1-ethyl-1-(9-fluoro-6-oxo-1,4,5,6-tetrahydro-2H-pyrano[3,4-c]isoquinolin-1-yl)urea] | 0.04 µM |
| CN(C(=O)Nc1ccc(F)c(Cl)c1)C1CCCc2[nH]c(=O)c3c(c21)COCC3 (centres unmarked) [Compound 80, 3-(3-Chloro-4-fluorophenyl)-1-methyl-1-(5-oxo-3,4,5,6,7,8,9,10-octahydro-1H-pyrano[4,3-c]quinolin-10-yl)urea] | 2.8 µM |
| CN(C(=O)Nc1ccc(F)c(Cl)c1)C1COCc2[nH]c(=O)c3cc(C#N)ccc3c21 (centres unmarked) [Compound 89, 3-(3-Chloro-4-fluorophenyl)-1-(8-cyano-6-oxo-1,4,5,6-tetrahydro-2H-pyrano[3,4-c]isoquinolin-1-yl)-1-methylurea] | 1.1 µM |
| CCN(C(=O)Nc1ccc(F)c(Cl)c1)C1COCc2[nH]c(=O)c3cc(C#N)ccc3c21 (centres unmarked) [Compound 90, 3-(3-Chloro-4-fluorophenyl)-1-(8-cyano-6-oxo-1,4,5,6-tetrahydro-2H-pyrano[3,4-c]isoquinolin-1-yl)-1-ethylurea] | 0.36 µM |
| CN(C(=O)Nc1ccc(F)c(Cl)c1)C1COCc2[nH]c(=O)c3sccc3c21 (centres unmarked) [Compound 95, 3-(3-Chloro-4-fluorophenyl)-1-methyl-1-(6-oxo-1,4,5,6-tetrahydro-2H-pyrano[3,4-b]thieno[3,2-d]pyridin-1-yl)urea] | 0.03 µM |
| CN(C(=O)Nc1ccc(F)c(Cl)c1)C1COCc2[nH]c(=O)c3ccsc3c21 (centres unmarked) [Compound 96, 3-(3-chloro-4-fluorophenyl)-1-methyl-1-(4-oxo-4,6,8,9-tetrahydro-5H-pyrano[3,4-b]thieno[2,3-d]pyridin-9-yl)urea] | 0.08 µM |
| CN(C(=O)Nc1ccc(F)c(Cl)c1)C1COCc2[nH]c(=O)c3cscc3c21 (centres unmarked) [Compound 105, 3-(3-Chloro-4-fluorophenyl)-1-methyl-1-(4-oxo-4,5,8,9-tetrahydro-6H-pyrano[3,4-b]thieno[3,4-d]pyridin-9-yl)urea] | 0.02 µM |
| CN(C(=O)Nc1ccc(F)c(C(F)F)c1)C1COCc2[nH]c(=O)c3cc(F)ccc3c21 (centres unmarked) [Compound 124, 3-(3-(Difluoromethyl)-4-fluorophenyl)-1-(8-fluoro-6-oxo-1,4,5,6-tetrahydro-2H-pyrano[3,4-c]isoquinolin-1-yl)-1-methylurea] | 0.01 µM |
| CN(C(=O)Nc1ccc(Cl)c(F)c1)[C@@H]1COCc2[nH]c(=O)c3cc(F)c(F)cc3c21 [Compound 141, (S)-3-(4-Chloro-3-fluorophenyl)-1-(8,9-difluoro-6-oxo-1,4,5,6-tetrahydro-2H-pyrano[3,4-c]isoquinolin-1-yl)-1-methylurea] | 0.02 µM |
| CN(C(=O)Nc1ccc(Cl)c(C#N)c1)[C@@H]1COCc2[nH]c(=O)c3cc(F)c(F)cc3c21 [Compound 142, (S)-3-(4-Chloro-3-cyanophenyl)-1-(8,9-difluoro-6-oxo-1,4,5,6-tetrahydro-2H-pyrano[3,4-c]isoquinolin-1-yl)-1-methylurea] | 0.03 µM |
| CN(C(=O)Nc1ccc(Cl)c(Cl)c1)[C@@H]1COCc2[nH]c(=O)c3cc(F)c(F)cc3c21 [Compound 143, (S)-3-(3,4-Dichlorophenyl)-1-(8,9-difluoro-6-oxo-1,4,5,6-tetrahydro-2H-pyrano[3,4-c]isoquinolin-1-yl)-1-methylurea] | 0.02 µM |
| CN(C(=O)NC1(C(F)(F)F)CC1)C1CCCc2[nH]c(=O)c3cc(F)c(F)cc3c21 (centres unmarked) [Compound 144, 1-(8,9-Difluoro-6-oxo-1,2,3,4,5,6-hexahydrophenanthridin-1-yl)-1-methyl-3-(1-(trifluoromethyl)cyclopropyl)urea] | 20 µM |
| CN(C(=O)NC1(C(F)(F)F)CC1)[C@@H]1COCc2[nH]c(=O)c3cc(F)c(F)cc3c21 [Compound 145, (S)-1-(8,9-Difluoro-6-oxo-1,4,5,6-tetrahydro-2H-pyrano[3,4-c]isoquinolin-1-yl)-1-methyl-3-(1-(trifluoromethyl)cyclopropyl)urea] | 9 µM |
| CN(C(=O)Nc1ccc(O)c(Cl)c1)[C@@H]1COCc2[nH]c(=O)c3cc(F)c(F)cc3c21 [Compound 148, (S)-3-(3-Chloro-4-hydroxyphenyl)-1-(8,9-difluoro-6-oxo-1,4,5,6-tetrahydro-2H-pyrano[3,4-c]isoquinolin-1-yl)-1-methylurea] | 0.76 µM |
| CN(C(=O)Nc1ccc(F)c(Cl)c1)C1COC(O)c2[nH]c(=O)c3cc(F)c(F)cc3c21 (centres unmarked) [Compound 151, 3-(3-Chloro-4-fluorophenyl)-1-(8,9-difluoro-4-hydroxy-6-oxo-1,4,5,6-tetrahydro-2H1-pyrano[3,4-c]isoquinolin-1-yl)-1-methylurea] | 0.02 µM |
| CN1Cc2[nH]c(=O)c3cc(F)c(F)cc3c2C(N(C)C(=O)Nc2ccc(F)c(C#N)c2)C1 (centres unmarked) [Compound 173, 3-(3-Cyano-4-fluorophenyl)-1-(8,9-difluoro-3-methyl-6-oxo-1,2,3,4,5,6-hexahydrobenzo[c][1,7]naphthyridin-1-yl)-1-methylurea] | 13 µM |
| CN(C(=O)Nc1ccc(F)c(Cl)c1)C1C[S+]([O-])Cc2[nH]c(=O)c3cc(F)ccc3c21 (centres unmarked) [Compound 193, 3-(3-Chloro-4-fluorophenyl)-1-(8-fluoro-3-oxido-6-oxo-1,4,5,6-tetrahydro-2H-thiopyrano[3,4-c]isoquinolin-1-yl)-1-methylurea] | 4.4 µM |
| CN(C(=O)N1Cc2ccccc2C1)[C@@H]1COCc2[nH]c(=O)c3cc(F)c(F)cc3c21 [Compound 218, (S)—N-(8,9-Difluoro-6-oxo-1,4,5,6-tetrahydro-2H-pyrano[3,4-c]isoquinolin-1-yl)-N-methylisoindoline-2-carboxamide] | 1.2 µM |
| CN(C(=O)N1Cc2ccc(Cl)cc2C1)[C@@H]1COCc2[nH]c(=O)c3cc(F)c(F)cc3c21 [Compound 219, (S)-5-Chloro-N-(8,9-difluoro-6-oxo-1,4,5,6-tetrahydro-2H-pyrano[3,4-c]isoquinolin-1-yl)-N-methylisoindoline-2-carboxamide] | 5.9 µM |

Same assay, conditions: Hepatitis B virus, HepDE19, 168 h, read-out: DE-19bDNA EC50 (uM), inhibition of rcDNA formation in HepDE19 cells (HepG2 derived), Tet-free medium, 7 day incubation, Quantigene 2.0 bDNA readout, top concentration 25 μM

| SMILES | EC50 |
| --- | --- |
| COc1ccc(NC(=O)N(C)[C@@H]2COCc3[nH]c(=O)c4cc(F)c(F)cc4c32)cc1Cl [Compound 147, (S)-3-(3-Chloro-4-methoxyphenyl)-1-(8,9-difluoro-6-oxo-1,4,5,6-tetrahydro-2H-pyrano[3,4-c]isoquinolin-1-yl)-1-methylurea] | 0.14 µM |
